Measurements from the NIST ThermoML archive (doi:10.1021/je800609u).
± gives the expanded uncertainty stated by the source.

Assay: refractive index (Na D-line) (dimensionless); mn = molality of the nth substance listed, in mol/kg
Settings: 101 kPa, Liquid

CCCCn1cc[n+](C)c1.[Cl-] [1-butyl-3-methylimidazolium chloride] + O
refractive index
Settings | 298.15 K | 308.15 K | 318.15 K | 328.15 K
m1 = 0.0105 | 1.333 ± 0.0006 | 1.3317 ± 0.0006 | 1.3292 ± 0.0006 | 1.3273 ± 0.0006
m1 = 0.023 | 1.3334 ± 0.0006 | 1.332 ± 0.0006 | 1.3295 ± 0.0006 | 1.3275 ± 0.0006
m1 = 0.0289 | 1.3335 ± 0.0006 | 1.3323 ± 0.0006 | 1.3296 ± 0.0006 | 1.3277 ± 0.0006
m1 = 0.0398 | 1.334 ± 0.0006 | 1.3326 ± 0.0006 | 1.33 ± 0.0006 | 1.328 ± 0.0006
m1 = 0.0621 | 1.3343 ± 0.0006 | 1.333 ± 0.0006 | 1.3305 ± 0.0006 | 1.3288 ± 0.0006
m1 = 0.0803 | 1.3349 ± 0.0006 | 1.3336 ± 0.0006 | 1.331 ± 0.0006 | 1.329 ± 0.0006
m1 = 0.0986 | 1.3354 ± 0.0006 | 1.3341 ± 0.0006 | 1.3312 ± 0.0006 | 1.3297 ± 0.0006
m1 = 0.1413 | 1.3366 ± 0.0006 | 1.3351 ± 0.0006 | 1.3325 ± 0.0006 | 1.3309 ± 0.0006
m1 = 0.1816 | 1.3377 ± 0.0006 | 1.3363 ± 0.0006 | 1.3338 ± 0.0006 | 1.3319 ± 0.0006
m1 = 0.2223 | 1.3388 ± 0.0006 | 1.3373 ± 0.0006 | 1.3346 ± 0.0006 | 1.3331 ± 0.0006
m1 = 0.2764 | 1.3404 ± 0.0006 | 1.3389 ± 0.0006 | 1.3362 ± 0.0006 | 1.3343 ± 0.0006
m1 = 0.3386 | 1.3419 ± 0.0006 | 1.3403 ± 0.0006 | 1.3377 ± 0.0006 | 1.3358 ± 0.0006
m1 = 0.371 | 1.3428 ± 0.0006 | 1.3416 ± 0.0006 | 1.3387 ± 0.0006 | 1.3369 ± 0.0006
m1 = 0.4863 | 1.3457 ± 0.0006 | 1.3441 ± 0.0006 | 1.3415 ± 0.0006 | 1.3398 ± 0.0006
m1 = 0.599 | 1.3484 ± 0.0006 | 1.3469 ± 0.0006 | 1.3442 ± 0.0006 | 1.3422 ± 0.0006
m1 = 0.7152 | 1.3512 ± 0.0006 | 1.3497 ± 0.0006 | 1.3467 ± 0.0006 | 1.3449 ± 0.0006
m1 = 0.9754 | 1.3571 ± 0.0006 | 1.3562 ± 0.0006 | 1.3528 ± 0.0006 | 1.3508 ± 0.0006
m1 = 1.492 | 1.3679 ± 0.0006 | 1.3661 ± 0.0006 | 1.3631 ± 0.0006 | 1.3611 ± 0.0006
m1 = 2 | 1.3774 ± 0.0006 | 1.3754 ± 0.0006 | 1.3723 ± 0.0006 | 1.3703 ± 0.0006
m1 = 2.962 | 1.3923 ± 0.0006 | 1.3904 ± 0.0006 | 1.3872 ± 0.0006 | 1.3849 ± 0.0006
